How the values were obtained:
[1] = xn = mol fraction of the nth substance listed; settings: 100 kPa, Liquid; for speed of sound: Frequency=3 MHz, Single path-length method; for mass density: Vibrating tube method
[2] = refractive index (Na D-line) (dimensionless); xn = mol fraction of the nth substance listed; settings: 100 kPa, Liquid, Standard Abbe refractometry

COCCO [2-methoxyethan-1-ol] + CCOC(=O)OCC
Settings	mass density, [1] [kg/m3]	refractive index, [2]	speed of sound, [1] [m/s]
298.15 K, x2 = 0	960.32	1.4001	1342.1
298.15 K, x2 = 0.0645	960.64	1.3989	1322.5
298.15 K, x2 = 0.1406	961.01	1.3976	1302.2
298.15 K, x2 = 0.2248	961.49	1.3963	1282.2
298.15 K, x2 = 0.3025	961.99	1.3951	1265.8
298.15 K, x2 = 0.3928	962.65	1.3936	1248.7
298.15 K, x2 = 0.4994	963.51	1.3916	1231.2
298.15 K, x2 = 0.6007	964.44	1.3897	1216.9
298.15 K, x2 = 0.7212	965.66	1.3874	1202.5
298.15 K, x2 = 0.8496	967.12	1.3851	1189.7
303.15 K, x2 = 0	955.71	1.3981	1324.7
303.15 K, x2 = 0.0645	955.91	1.3969	1304.6
303.15 K, x2 = 0.1406	956.16	1.3957	1283.8
303.15 K, x2 = 0.2248	956.52	1.3943	1263.4
303.15 K, x2 = 0.3025	956.91	1.3931	1246.7
303.15 K, x2 = 0.3928	957.45	1.3915	1229.4
303.15 K, x2 = 0.4994	958.2	1.3895	1211.7
303.15 K, x2 = 0.6007	959.03	1.3876	1197.2
303.15 K, x2 = 0.7212	960.16	1.3853	1182.5
303.15 K, x2 = 0.8496	961.54	1.3829	1169.5
308.15 K, x2 = 0	951.08	1.3961	1307.4
308.15 K, x2 = 0.0645	951.16	1.395	1286.7
308.15 K, x2 = 0.1406	951.29	1.3938	1265.4
308.15 K, x2 = 0.2248	951.51	1.3924	1244.7
308.15 K, x2 = 0.3025	951.79	1.3911	1227.7
308.15 K, x2 = 0.3928	952.22	1.3894	1210.2
308.15 K, x2 = 0.4994	952.85	1.3875	1192.4
308.15 K, x2 = 0.6007	953.59	1.3855	1177.7
308.15 K, x2 = 0.7212	954.63	1.3832	1162.7
308.15 K, x2 = 0.8496	955.94	1.3807	1149.3
313.15 K, x2 = 0	946.42	1.3943	1290
313.15 K, x2 = 0.0645	946.39	1.3931	1268.8
313.15 K, x2 = 0.1406	946.49	1.3918	1247
313.15 K, x2 = 0.2248	946.58	1.3904	1226
313.15 K, x2 = 0.3025	946.66	1.389	1208.8
313.15 K, x2 = 0.3928	946.97	1.3874	1191.2
313.15 K, x2 = 0.4994	947.49	1.3854	1173.2
313.15 K, x2 = 0.6007	948.13	1.3834	1158.3
313.15 K, x2 = 0.7212	949.08	1.3811	1143
313.15 K, x2 = 0.8496	950.31	1.3786	1129.4
318.15 K, x2 = 0	941.72	1.3922	1272.7
318.15 K, x2 = 0.0645	941.57	1.3913	1251
318.15 K, x2 = 0.1406	941.44	1.39	1228.8
318.15 K, x2 = 0.2248	941.41	1.3885	1207.4
318.15 K, x2 = 0.3025	941.48	1.3871	1190.1
318.15 K, x2 = 0.3928	941.67	1.3853	1172.3
318.15 K, x2 = 0.4994	942.07	1.3833	1154.1
318.15 K, x2 = 0.6007	942.61	1.3814	1139.1
318.15 K, x2 = 0.7212	943.46	1.379	1123.5
318.15 K, x2 = 0.8496	944.62	1.3764	1109.7
323.15 K, x2 = 0	936.89	1.3902	1255.4
323.15 K, x2 = 0.0645	936.71	1.3894	1233.2
323.15 K, x2 = 0.1406	936.46	1.3881	1210.6
323.15 K, x2 = 0.2248	936.29	1.3865	1188.9
323.15 K, x2 = 0.3025	936.25	1.385	1171.4
323.15 K, x2 = 0.3928	936.34	1.3832	1153.5
323.15 K, x2 = 0.4994	936.62	1.3812	1135.1
323.15 K, x2 = 0.6007	937.08	1.3792	1119.9
323.15 K, x2 = 0.7212	937.86	1.3768	1104.2
323.15 K, x2 = 0.8496	938.96	1.3743	1090

CCCOCCO [2-propoxyethanol] + CCOC(=O)OCC
Settings	mass density, [1] [kg/m3]	refractive index, [2]	speed of sound, [1] [m/s]
298.15 K, x2 = 0	907.16	1.4103	1300.9
298.15 K, x2 = 0.0881	912.3	1.4089	1289.1
298.15 K, x2 = 0.1907	918.42	1.4074	1276.1
298.15 K, x2 = 0.2866	924.17	1.4062	1264
298.15 K, x2 = 0.3906	930.48	1.4046	1250.3
298.15 K, x2 = 0.484	936.17	1.4023	1237.8
298.15 K, x2 = 0.5955	943.04	1.3988	1223.4
298.15 K, x2 = 0.6907	948.97	1.3953	1211.7
298.15 K, x2 = 0.7908	955.29	1.3914	1200
298.15 K, x2 = 0.8939	961.94	1.3871	1188.5
303.15 K, x2 = 0	902.74	1.4081	1283.7
303.15 K, x2 = 0.0881	907.76	1.4068	1271.7
303.15 K, x2 = 0.1907	913.74	1.4054	1258.2
303.15 K, x2 = 0.2866	919.36	1.4042	1245.6
303.15 K, x2 = 0.3906	925.55	1.4026	1231.5
303.15 K, x2 = 0.484	931.11	1.4004	1218.7
303.15 K, x2 = 0.5955	937.84	1.3968	1203.9
303.15 K, x2 = 0.6907	943.65	1.3933	1192
303.15 K, x2 = 0.7908	949.85	1.3894	1180.1
303.15 K, x2 = 0.8939	956.4	1.385	1168.3
308.15 K, x2 = 0	898.32	1.4058	1266.4
308.15 K, x2 = 0.0881	903.19	1.4046	1254.2
308.15 K, x2 = 0.1907	909.01	1.4034	1240.2
308.15 K, x2 = 0.2866	914.52	1.4023	1227.1
308.15 K, x2 = 0.3906	920.55	1.4006	1212.7
308.15 K, x2 = 0.484	926.02	1.3984	1199.7
308.15 K, x2 = 0.5955	932.6	1.3948	1184.6
308.15 K, x2 = 0.6907	938.31	1.3912	1172.3
308.15 K, x2 = 0.7908	944.38	1.3873	1160.2
308.15 K, x2 = 0.8939	950.83	1.3828	1148.2
313.15 K, x2 = 0	893.89	1.4034	1249.2
313.15 K, x2 = 0.0881	898.63	1.4024	1236.8
313.15 K, x2 = 0.1907	904.33	1.4014	1222.3
313.15 K, x2 = 0.2866	909.68	1.4004	1208.8
313.15 K, x2 = 0.3906	915.57	1.3987	1194
313.15 K, x2 = 0.484	920.91	1.3964	1180.7
313.15 K, x2 = 0.5955	927.35	1.3928	1165.3
313.15 K, x2 = 0.6907	932.94	1.3892	1152.9
313.15 K, x2 = 0.7908	938.9	1.3851	1140.5
313.15 K, x2 = 0.8939	945.23	1.3805	1128.3
318.15 K, x2 = 0	889.45	1.4011	1231.9
318.15 K, x2 = 0.0881	894.03	1.4003	1219.3
318.15 K, x2 = 0.1907	899.58	1.3995	1204.5
318.15 K, x2 = 0.2866	904.8	1.3985	1190.6
318.15 K, x2 = 0.3906	910.54	1.3967	1175.3
318.15 K, x2 = 0.484	915.74	1.3944	1161.8
318.15 K, x2 = 0.5955	922.05	1.3908	1146.2
318.15 K, x2 = 0.6907	927.53	1.3872	1133.5
318.15 K, x2 = 0.7908	933.4	1.3831	1121
318.15 K, x2 = 0.8939	939.63	1.3782	1108.6
323.15 K, x2 = 0	885	1.3988	1215
323.15 K, x2 = 0.0881	889.44	1.3982	1201.9
323.15 K, x2 = 0.1907	894.82	1.3975	1186.8
323.15 K, x2 = 0.2866	899.91	1.3966	1172.5
323.15 K, x2 = 0.3906	905.53	1.3947	1156.9
323.15 K, x2 = 0.484	910.62	1.3924	1143.2
323.15 K, x2 = 0.5955	916.75	1.3888	1127.3
323.15 K, x2 = 0.6907	922.11	1.3852	1114.5
323.15 K, x2 = 0.7908	927.83	1.3809	1101.7
323.15 K, x2 = 0.8939	933.96	1.376	1089

Reference: the NIST ThermoML archive (doi:10.1016/j.jct.2016.11.002)
